Results reported in patent publication US20070116645A1, “Methods and compositions for inhibiting cholesterol uptake” (priority 2004, published 2007).
“Also recorded” adds a separate entry of the source.

Key:
CAV1-ANX2b heterocomplex = assay: Immunoprecipitation and immunoblot for the CAV1-ANX2b heterocomplex in morpholino-injected embryos; format: in vivo, zebrafish; conditions: for CAV1-ANX2b heterocomplex present / ANX2b protein detected / CAV1 protein detected: 48 hpf embryos, MO injected at 1-8 cell stage; for ANX2b protein detected / CAV1 protein detected: FIG. 3A
Protocol: (§1) All morpholino oligonucleotides were commercially obtained (GeneTools LLC, Philomath, Oreg.). Sequences used were: cav1, 5′-[…]-3′ (SEQ ID NO: 10); anx2b, 5′-[…]-3′ (SEQ ID NO: 11); anx2b (4 base mismatch), 5′-GCCAATT TCGTTAGTAGTTGAAGAG-3 (SEQ ID NO: 12)′; anx2a, 5′-[…]-3′ (SEQ ID NO: 13). MOs were dissolved in Danieau buffer (3) at a concentration of (1-3 μg/μl) and pressure injected into the yolk of early stage larvae (1-8 cell stage) as described (3).
The embryos were lysed in 1 ml of buffer (150 mM NaCl, 1.0% NP-40, 0.5% deoxycholate, 0.1% SDS, 50 mM Tris, pH 8.0) and protein amounts determined by Lowry. Equal amounts of lysate (50 ug) were mixed together in the lysis buffer for 1 hour at 37 °C. At the end of the incubation protein A-sepharose beads (blocked with lysis buffer and 30 mg/ml BSA) were used to pre-clear the samples. Pre-cleared samples were than incubated for 18 hours at 4° C. with the appropriate antibody (2 ug/sample) before adding blocked, protein A-sepharose beads and incubating an additional 2 hours at 4° C. The beads were collected by centrifugation, washed five times in high salt RIPA buffer (500 mM NaCl). The samples were than analyzed by SDS-PAGE and immunoblot.

zebrafish embryos [1] = assay: Developmental phenotype of morpholino-injected embryos (morphology, myoD in situ hybridization); format: in vivo
Protocol: as §1
Methods for breeding and raising zebrafish were followed as described (21). Embryos were obtained from natural matings of wild-type (Oregon, AB) fish and staged according to criteria previously outlined (22) and by hours post-fertilization (hpf). Digoxigenin-labeled RNA probes synthesized for each gene were hybridized to embryos or larvae at various developmental stages. In situ hybridization for anx2b and cav1 expression was carried out as previously described (22).

zebrafish larvae = assay: In vivo assay for cholesterol transport (NBD-cholesterol intestinal fluorescence); conditions: 5 dpf larvae, three independent experiments, ANOVA p<0.00001
Protocol: Embryos (uninjected or anx2b MO injected) at 5 dpf were labeled with NBD-cholesterol (1,26) and blind-sorted into three groups based on intestinal fluorescence, each assigned a numerical value: 1=no or weak fluorescence, 2=moderate, 3=strong; total n=41 uninjected, 55 injected.
Zebrafish larvae were labeled (2 h) with NBD-Cholesterol prepared as previously described (1) in embryo medium (21), anesthetized (tricaine, 170 ug/ml) and placed in depression slides. Fluorescent images were captured using a Zeiss Axiocam 2 mounted on a Leica MZFL-III. For statistical analysis intestinal fluorescence was scored on a three point scale (weak, moderate and bright) and analyzed (ANOVA).

zebrafish embryos [2] = assay: Embryo lipid composition by SPE and GC-MS (cholesterol, cholesteryl ester, triglycerides); format: in vivo; conditions: 72 hpf embryos, FIG. 5C
Protocol: Approximately 80 embryos at 72 hpf were placed in 0.7 ml of MBST/OG (25 mM MES, pH 6.5, 0.15 M NaCl, 1% (v/v) Triton X-100, 60 mM octylglucoside, 0.1% (w/v) SDS) and homogenized with a Tissue-Tearor™ homogenizer (Biospec Products, Inc). The sample was then sonicated (50 watts) for ten seconds, three times on ice, centrifuged at 1000×g for 5 minutes and the supernatant collected. Neutral lipids were isolated by Solid Phase Extraction (SPE) on an Oasis HLB 5 cc/200 mg LP Glass Cartridges (Waters, Milford Mass.). The columns were pre-conditioned with 3 ml of methyl tetr-butyl ether, then 3 ml methanol, and finally 3 ml of water. The sample (0.5 ml) was mixed with acetic acid (1 ml) and 5α-androstane-3α-17β-diol (recovery standard, 40 μl) and immediately applied to the column. The column was washed with 2 ml of 2% acetic acid followed by 2 ml of methanol (2%):acetic acid (2%). Neutral lipids were eluted with 3 ml of methyl tetr-butyl ether:methanol:acetic acid (75:23:2). The eluted material was dried under nitrogen, dissolved in 150 μl of hexane:isopropanol (3:2) and transferred to a gas chromatography vial. The material was dissolved in 20 μl of hexamethyldisilazane: pentafluoropropionic anhydride:acetonitrile (100:2:20) for 20 minutes at room temperature and […] was then injected onto a Chemstation gas chromatograph with a mass selective detector, Model 6890 (Agilent Technologies, Wilmington, Del.) and equipped with a SPE HT5 Aluminum Clad Fused Silica Capillary Column, 12 m, 0.32 mm ID, 0.1 um film (Supelco, Bellefonte, Pa.). The inlet temperature was 220° C., the interface temperature was 340° C. and the oven program was 140° C., hold 3 min, 20° C./min to 380° C., hold 5 min. Method of lipid detection was SIM mode with the following mass numbers: 416 for 5α-androstane-3α-17β-diol, 436 for TMS-cholesterol, 368 for cholesterol esters, 98 for triglycerides. A two step procedure was used to quantify the lipids. […]

zebrafish embryos [3] = assay: Uptake of 14C-labeled glucose in embryos; format: in vivo; conditions: 5 dpf embryos, data not shown
Protocol: Embryos (uninjected or anx2b MO injected) at 5 dpf were placed at ten per tube in 0.5 ml embryo medium (21) containing methyl-D-glucose, 3-O-[glucose-^14C(U)] (American Radiolabeled Chemicals, Inc.) at a concentration of 12.5 μM and incubated at room temperature for 2 hours. Embryos were then chased with 0.5 ml embryo medium with 125 μM unlabeled glucose and incubated 30 minutes, then rinsed three times with chase solution, transferred to fresh tubes, vigorously homogenized with a pestle, and transferred into scintillation fluid for liquid scintillation counting. Three separate trials with 2 or 3 tubes each of uninjected and injected embryos were performed.

Substance	CAV1-ANX2b heterocomplex present (CAV1-ANX2b heterocomplex)	ANX2b protein detected (CAV1-ANX2b heterocomplex)	CAV1 protein detected (CAV1-ANX2b heterocomplex)	Survival to the stage where NBD-cholesterol is ingested (zebrafish embryos [1]; MO-injected larvae)	Developmental abnormalities (zebrafish embryos [1]; zebrafish, in vivo)	Somite morphology (myoD riboprobe) (zebrafish embryos [1]; zebrafish, in vivo)	Intestinal fluorescence after feeding NBD-cholesterol (zebrafish larvae)	ANX2b and complex detected (duration of MO effect) (CAV1-ANX2b heterocomplex; 24, 48 and 72 hpf, FIG. 5B lanes 2-4)	ANX2b detected (duration of MO effect) (CAV1-ANX2b heterocomplex; 96 hpf, FIG. 5B lane 5)	Level of cholesterol versus uninjected embryos (zebrafish embryos [2])	Level of cholesteryl ester versus uninjected embryos (zebrafish embryos [2])	Level of triglycerides versus uninjected embryos (zebrafish embryos [2])	Uptake of 14C-labeled glucose versus uninjected embryos (zebrafish embryos [3])
cav1 MO: morpholino antisense oligonucleotide against zebrafish cav1, 5′-TGTCCCGTCCTTGTATCCGCTAGTC-3′ (SEQ ID NO: 10) (all phosphorodiamidate morpholino (PMO))	only ANX2 protein monomer and no complex	seen only as a monomer	not detected	failed to survive to a stage where NBD-cholesterol is ingested	early developmental abnormalities including defects in axis elongation and somite patterning	abnormal somites							
anx2a MO: morpholino antisense oligonucleotide against zebrafish anx2a, 5′-CTAAGAACTCAGAGACCAAAGCCAT-3′ (SEQ ID NO: 13) (all phosphorodiamidate morpholino (PMO)) [reference compound]	contained the CAV1-ANX2b heterocomplex exactly like the uninjected embryos												
anx2b MO containing 4 bases mismatched: control morpholino, anx2b with 4 base mismatch, 5′-GCCAATT TCGTTAGTAGTTGAAGAG-3 (SEQ ID NO: 12) (antisense GCCAATTTCGTTAGTAGTTGAAGAG; all phosphorodiamidate morpholino (PMO); mismatch control morpholino) [reference compound]	contained the CAV1-ANX2b heterocomplex exactly like the uninjected embryos												
anx2b MO: morpholino antisense oligonucleotide against zebrafish anx2b, 5′-GCCATTTTCCTTAGTTGTTGTAGAG-3′ (SEQ ID NO: 11) (all phosphorodiamidate morpholino (PMO))	only CAV protein monomer	did not contain ANX2b protein	only detected as a monomer		did not show any obvious developmental abnormalities		a subset of the injected larvae failed to accumulate the fluorescent cholesterol analog in the digestive tract; also recorded: significant reduction in intestinal fluorescence	no ANX2b and thus no complex is detected	again detected	significantly lower	significantly lower	unaffected	the same
